Where two headings read alike, the source gives them in different places.
Test system: PMA-differentiated THP-1 cells
Experiment: IL-1β production in PMA-differentiated THP-1 cells stimulated with gramicidin (hTHP-1 assay containing 2% fetal bovine serum; Procedures 1 and 2)
Type: cell-based, human
Conditions: 2% fetal bovine serum
In short: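 IL-1β release from PMA-differentiated THP-1 macrophage-like cells was triggered by 5 μM gramicidin for 2 h after 1 h compound exposure, then measured by HTRF.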

[1] = Homo sapiens, THP-1, Table B2, class symbols, read-out: hTHP-1 IC50
[2] = Homo sapiens, THP-1, Table B3, hTHP-1 assay, class symbols, read-out: IC50
[3] = Table B4, class symbols, read-out: hTHP-1 IC50
[4] = Homo sapiens, THP-1, Table B1, class symbols, read-out: Average IC50 of compounds in hTHP-1 assay: hTHP-1 IC50
[5] = Table B1, class symbols, read-out: Average IC50 of compounds in hTHP-1 assay: hTHP-1 IC50
[6] = Table B2, class symbols, read-out: hTHP-1 IC50

Compound `CC(C)(O)c1ncc(S(N)(=O)=NC(=O)Nc2c3c(nc4c2CCC4CF)CCC3)s1` (centres unmarked) [Compound 702, N′-((3-(fluoromethyl)-1,2,3,5,6,7-hexahydrodicyclopenta[b,e]pyridin-8-yl)carbamoyl)-2-(2-hydroxypropan-2-yl)thiazole-5-sulfonimidamide] has an IC50 [1] of 1000 to 5000 nM.
With `NS(=O)(=NC(=O)Nc1c2c(nc3c1CCC31CC1)CCC2)c1ccn(CCO)n1` (centres unmarked) [Example 622, 1-(2-Hydroxyethyl)-N′-((1′,5′,6′,7′-tetrahydro-2′H-spiro[cyclopropane-1,3′-dicyclopenta[b,e]pyridin]-8′-yl)carbamoyl)-1H-pyrazole-3-sulfonimidamide] the IC50 [2] was 1000 to 5000 nM.
`CC(C)(O)c1cc(F)c([S@@](N)(=O)=NC(=O)Nc2cc(CC(F)(F)F)nc3c2CCC3)s1` [Compound 602a] showed an IC50 (Homo sapiens, THP-1, Table B2, numeric bounds, read-out: hTHP-1 IC50) greater than 30000 nM.
`CCn1cc(F)c(S(N)(=O)=NC(=O)Nc2c3c(nc(C(F)(F)F)c2-c2ccc(F)cc2)CCC3)n1` (single isomer, unassigned) [Example 788, (S) or (R)-1-ethyl-4-fluoro-N′-((3-(4-fluorophenyl)-2-(trifluoromethyl)-6,7-dihydro-5H-cyclopenta[b]pyridin-4-yl)carbamoyl)-1H-pyrazole-3-sulfonimidamide] gave an IC50 [3] of 1000 to 5000 nM.
For `CCn1cc(F)c(S(N)(=O)=NC(=O)Nc2c3c(nc4c2CC[C@@H]4C)CCC3)n1` (stereo partly drawn) [Example 616, 1-Ethyl-4-fluoro-N′-(((S)-3-methyl-1,2,3,5,6,7-hexahydrodicyclopenta[b,e]pyridin-8-yl)carbamoyl)-1H-pyrazole-3-sulfonimidamide], the IC50 [2] was 200 to 1000 nM.
With `Cc1c(C2CC2)nc2c(c1NC(=O)N=S(N)(=O)c1sc(C(C)(C)O)cc1F)CCC2` (centres unmarked) [Compound 174, N′-((2-cyclopropyl-3-methyl-6,7-dihydro-5H-cyclopenta[b]pyridin-4-yl)carbamoyl)-3-fluoro-5-(2-hydroxypropan-2-yl)thiophene-2-sulfonimidamide] the IC50 [4] was 200 to 1000 nM.
Work on `CC(C)(O)c1sc(S(N)(=O)=NC(=O)Nc2c3c(nc4c2CCC4(C)C)CCC3)nc1CO` (centres unmarked) [Compound 642, N′-((3,3-dimethyl-1,2,3,5,6,7-hexahydrodicyclopenta[b,e]pyridin-8-yl)carbamoyl)-4-(hydroxymethyl)-5-(2-hydroxypropan-2-yl)thiazole-2-sulfonimidamide] yielded an IC50 [1] of 40 to 200 nM.
In the case of `CC(C)(O)c1cc(F)c(S(N)(=O)=NC(=O)Nc2c3c(nc4c2CCC42CC2)CCC3)s1` (single isomer, unassigned) [Compound 101b, (R) or (S)-3-fluoro-5-(2-hydroxypropan-2-yl)-N′-((1′,5′,6′,7′-tetrahydro-2′H-spiro[cyclopropane-1,3′-dicyclopenta[b,e]pyridin]-8′-yl)carbamoyl)thiophene-2-sulfonimidamide], the IC50 [5] is reported as 8 to 40 nM.
`CC1(C)CCc2c1nc1c(c2NC(=O)N=S(N)(=O)c2sc([C@](C)(O)CO)nc2CO)CCC1` (stereo partly drawn) [Example 600, 2-((R)-1,2-dihydroxypropan-2-yl)-N′-((3,3-dimethyl-1,2,3,5,6,7-hexahydrodicyclopenta[b,e]pyridin-8-yl)carbamoyl)-4-(hydroxymethyl)thiazole-5-sulfonimidamide] was tested, and the IC50 [2] was 200 to 1000 nM.
`Cc1c(C2CC2)nc2c(c1NC(=O)N=S(N)(=O)c1cc(C(C)(C)O)n(-c3ccccc3)n1)CCC2` (single isomer, unassigned) [Compound 651a, (S) or (R)-N′-((2-cyclopropyl-3-methyl-6,7-dihydro-5H-cyclopenta[b]pyridin-4-yl)carbamoyl)-5-(2-hydroxypropan-2-yl)-1-phenyl-1H-pyrazole-3-sulfonimidamide] was tested, and the IC50 [6] was 5000 to 30000 nM.
In the case of `CCc1nc2c(c(NC(=O)N=S(N)(=O)c3cnc(C(C)(C)O)s3)c1C1CC1)CCC2` (single isomer, unassigned) [Compound 630b, (R) or (S)-N′-((3-cyclopropyl-2-ethyl-6,7-dihydro-5H-cyclopenta[b]pyridin-4-yl)carbamoyl)-2-(2-hydroxypropan-2-yl)thiazole-5-sulfonimidamide], the IC50 [6] is reported as 200 to 1000 nM.
`Cc1c(C(F)(F)F)nc2c(c1NC(=O)N=S(N)(=O)c1nn(C(C)C)cc1F)CCC2` (single isomer, unassigned) [Example 790, (S) or (R)-4-fluoro-1-isopropyl-N′-((3-methyl-2-(trifluoromethyl)-6,7-dihydro-5H-cyclo-penta [b]pyridin-4-yl)carbamoyl)-1H-pyrazole-3-sulfonimidamide] gave an IC50 [3] of 5000 to 30000 nM.
In the case of `CC(C)c1nc2c(cc1NC(=O)N=S(N)(=O)c1cnc(C(C)(C)O)s1)CCC2` (single isomer, unassigned) [Example 702, (S) or (R)-2-(2-Hydroxypropan-2-yl)-N′-((2-isopropyl-6,7-dihydro-5H-cyclopenta[b]pyridin-3-yl)carbamoyl)thiazole-5-sulfonimidamide], the IC50 (Homo sapiens, THP-1, Table B3, hTHP-1 assay, numeric values, read-out: IC50) is reported as greater than 30000 nM.
Work on `CC(C)c1c(-c2ccccc2)nc2c(c1NC(=O)N=S(N)(=O)c1cnc(C(C)(C)O)s1)CCC2` (single isomer, unassigned) [Compound 145b, (S) or (R)-2-(2-hydroxy-propan-2-yl)-N′-((3-isopropyl-2-phenyl-6,7-dihydro-5H-cyclopenta[b]pyridin-4-yl)carbamoyl)thiazole-5-sulfonimidamide] yielded an IC50 [5] of 1000 to 5000 nM.
In the case of `CC1CCc2c1nc1c(c2NC(=O)N=S(N)(=O)c2cc(C(C)(C)O)cs2)CCC1C` (centres unmarked) [Compound 131, N′-((3,5-dimethyl-1,2,3,5,6,7-hexahydrodicyclopenta[b,e]pyridin-8-yl)carbamoyl)-4-(2-hydroxypropan-2-yl)thiophene-2-sulfonimidamide], the IC50 [5] is reported as 200 to 1000 nM.
With `CCn1ccc(S(N)(=O)=NC(=O)Nc2c(C)c(C(F)(F)F)nc3c2CCC3)n1` (single isomer, unassigned) [Example 692, (S) or (R)-1-Ethyl-N′-((3-methyl-2-(trifluoromethyl)-6,7-dihydro-5H-cyclopenta[b]pyridin-4-yl)carbamoyl)-1H-pyrazole-3-sulfonimidamide] the IC50 (Table B3, hTHP-1 assay, class symbols, read-out: IC50) was 5000 to 30000 nM.
Work on `CC(C)(O)c1cc(F)c(S(N)(=O)=NC(=O)Nc2c3c(nc(C4CC4)c2C2CC2)CCC3)s1` (centres unmarked) [Compound 727] yielded an IC50 [1] of 200 to 1000 nM.
Work on `Cc1nc2c(c(NC(=O)N=S(N)(=O)c3ncc(C(C)(C)O)s3)c1C1CC1)CCC2` (single isomer, unassigned) [Compound 618b, (R) or (S)-N′-((3-cyclopropyl-2-methyl-6,7-dihydro-5H-cyclopenta[b]pyridin-4-yl)carbamoyl)-5-(2-hydroxypropan-2-yl)thiazole-2-sulfonimidamide] yielded an IC50 [1] of 200 to 1000 nM.
Work on `CC1CCc2c1nc1c(c2NC(=O)N=S(N)(=O)c2cnc(C(C)(C)O)s2)CCC1` (single isomer, unassigned) [Compound 162ab, (S,R) or (S,S)-2-(2-hydroxypropan-2-yl)-N′-((3-methyl-1,2,3,5,6,7-hexahydrodicyclo-penta[b,e]pyridin-8-yl)carbamoyl)thiazole-5-sulfonimidamide] yielded an IC50 [5] of 1000 to 5000 nM.
For `CC1(C)CCc2c1nc1c(c2NC(=O)N=S(N)(=O)c2ccn(C(F)F)n2)CCC1` (single isomer, unassigned) [Compound 122a, (R) or (S)-1-(difluoromethyl)-N′-((3,3-dimethyl-1,2,3,5,6,7-hexahydrodicyclo-penta[b,e]pyridin-8-yl)carbamoyl)-1H-pyrazole-3-sulfonimidamide], the IC50 [5] was 40 to 200 nM.
`C[C@@H]1CCc2c1nc1c(c2NC(=O)N=S(N)(=O)c2nn(C(F)F)cc2F)CCC1` (some centres unmarked) [Compound 718a] gave an IC50 [1] of 40 to 200 nM.
For `CC(C)(O)c1nc(CO)c(S(N)(=O)=NC(=O)Nc2c3c(nc4c2CCC4)CCC3)s1` (single isomer, unassigned) [Compound 150b, (R) or (S)-N′-((1,2,3,5,6,7-hexahydrodicyclo-penta[b,e]pyridin-8-yl)carbamoyl)-4-(hydroxymethyl)-2-(2-hydroxypropan-2-l)thiazole-5-sulfonimidamide], the IC50 [5] was 200 to 1000 nM.
Compound `CC(C)(O)c1csc(S(N)(=O)=NC(=O)Nc2cc(CC(F)(F)F)nc3c2CCC3)c1` (single isomer, unassigned) [Compound 607b, (R) or (S)-4-(2-Hydroxypropan-2-yl)-N′-((2-(2,2,2-trifluoroethyl)-6,7-dihydro-5H-cyclopenta[b]pyridin-4-yl)carbamoyl) thiophene-2-sulfonimidamide] has an IC50 [1] of 1000 to 5000 nM.
In the case of `Cc1c(C(C)(C)C)nc2c(c1NC(=O)N=S(N)(=O)c1cc(C(C)(C)O)cs1)CCC2` (single isomer, unassigned) [Compound 657b, (R) or (S)-N′-((2-(tert-butyl)-3-methyl-6,7-dihydro-5H-cyclopenta[b]pyridin-4-yl)carbamoyl)-4-(2-hydroxypropan-2-yl)thiophene-2-sulfonimidamide], the IC50 [1] is reported as 5000 to 30000 nM.
In the case of `CC(C)c1cc(NC(=O)N=S(N)(=O)c2cc(C(C)(C)O)cs2)c2c(n1)CCC2` (single isomer, unassigned) [Compound 182b, (R) or (S)-4-(2-Hydroxypropan-2-yl)-N′-((2-isopropyl-6,7-dihydro-5H-cyclopenta[b]pyridin-4-yl)carbamoyl) thiophene-2-sulfonimidamide], the IC50 [1] is reported as 5000 to 30000 nM.
Work on `Cn1nc(S(N)(=O)=NC(=O)Nc2c3c(nc4c2CCC4)CCC3)cc1C(C)(C)O` (single isomer, unassigned) [Compound 158a, (R) or (S)-N′-((1,2,3,5,6,7-hexahydrodicyclo-penta[b,e]pyridin-8-yl)carbamoyl)-5-(2-hydroxypropan-2-yl)-1-methyl-1H-pyrazole-3-sulfonimidamide] yielded an IC50 [4] of 1000 to 5000 nM.
